From patent US4604234A, “Protein having cell growth stimulating action, composition thereof and method for producing the same” (priority 1983, dated 1986)
Where two headings read alike, the source gives them in different places.

Tests used:
BHK-21 cells [1] = assay: Effects of WHS on BHK-21 cells in the presence of steroids; assay type: cell-based, hamster; details: steroid 50 μg/ml alone
BHK-21 cells [2] = assay: Inhibitory effects of steroids on BHK-21 cells; assay type: cell-based, hamster; details: for activity at 0.5 µg/mL / activity at 1 µg/mL / activity at 5 µg/mL / activity at 25 µg/mL / activity at 50 µg/mL: Mesocricetus auratus, read-out: % of control cell numbers
mouse fibroblasts = details: with protoplasmic vacuolation; cited from earlier work
[3] = tested on: BHK-21 cells (hamster renal fibroblasts); assay: Growth of BHK-21 cells, time course; assay type: cell-based
epidermal cell = details: cited from earlier work

For `CC1(C)O[C@@H]2C[C@H]3[C@@H]4C[C@H](F)C5=CC(=O)C=C[C@]5(C)[C@@]4(F)[C@@H](O)C[C@]3(C)[C@]2(C(=O)CO)O1` [Fluocinolone acetanide, fluocinolone acetonide], the cell numbers (BHK-21 cells [1]; 3rd day) was 0.97 × 10^5 cells/dish, the cell numbers (BHK-21 cells [1]; 5th day) was 1.22 × 10^5 cells/dish and the cell numbers (BHK-21 cells [2]; 0.5 μg/ml, 1 day) was 0.15 × 10^5 cells/dish. For the same molecule, the cell numbers (BHK-21 cells [2]; 0.5 μg/ml, 3 days) was 1.16 × 10^5 cells/dish, the cell numbers (BHK-21 cells [2]; 0.5 μg/ml, 5 days) was 1.66 × 10^5 cells/dish and the cell numbers (BHK-21 cells [2]; 1.0 μg/ml, 1 day) was 0.15 × 10^5 cells/dish. The cell numbers (BHK-21 cells [2]; 1.0 μg/ml, 3 days) was 1.04 × 10^5 cells/dish, the cell numbers (BHK-21 cells [2]; 1.0 μg/ml, 5 days) was 1.72 × 10^5 cells/dish and the cell numbers (BHK-21 cells [2]; 5.0 μg/ml, 1 day) was 0.15 × 10^5 cells/dish. The cell numbers (BHK-21 cells [2]; 5.0 μg/ml, 3 days) was 1.02 × 10^5 cells/dish, the cell numbers (BHK-21 cells [2]; 5.0 μg/ml, 5 days) was 1.66 × 10^5 cells/dish and the cell numbers (BHK-21 cells [2]; 25.0 μg/ml, 1 day) was 0.15 × 10^5 cells/dish. For the same molecule, the cell numbers (BHK-21 cells [2]; 25.0 μg/ml, 3 days) was 0.88 × 10^5 cells/dish, the cell numbers (BHK-21 cells [2]; 25.0 μg/ml, 5 days) was 1.39 × 10^5 cells/dish and the cell numbers (BHK-21 cells [2]; 50.0 μg/ml, 1 day) was 0.12 × 10^5 cells/dish. For the same molecule, the cell numbers (BHK-21 cells [2]; 50.0 μg/ml, 3 days) was 0.71 × 10^5 cells/dish, the cell numbers (BHK-21 cells [2]; 50.0 μg/ml, 5 days) was 1.12 × 10^5 cells/dish and the activity at 0.5 µg/mL (BHK-21 cells [2]; BHK-21, 24 h, 0.5 μg/ml, 1 day) was 107%. For the same molecule, the activity at 1 µg/mL (BHK-21 cells [2]; BHK-21, 24 h, 1.0 μg/ml, 1 day) was 107%, the activity at 5 µg/mL (BHK-21 cells [2]; BHK-21, 24 h, 5.0 μg/ml, 1 day) was 107% and the activity at 25 µg/mL (BHK-21 cells [2]; BHK-21, 24 h, 25.0 μg/ml, 1 day) was 107%. The activity at 50 µg/mL (BHK-21 cells [2]; BHK-21, 24 h, 50.0 μg/ml, 1 day) was 85.7%, the activity at 0.5 µg/mL (BHK-21 cells [2]; BHK-21, 72 h, 0.5 μg/ml, 3 days) was 86.6% and the activity at 1 µg/mL (BHK-21 cells [2]; BHK-21, 72 h, 1.0 μg/ml, 3 days) was 77.6%. It also gave an activity at 5 µg/mL (BHK-21 cells [2]; BHK-21, 72 h, 5.0 μg/ml, 3 days) of 76.1%, an activity at 25 µg/mL (BHK-21 cells [2]; BHK-21, 72 h, 25.0 μg/ml, 3 days) of 65.7% and an activity at 50 µg/mL (BHK-21 cells [2]; BHK-21, 72 h, 50.0 μg/ml, 3 days) of 53%. The activity at 0.5 µg/mL (BHK-21 cells [2]; BHK-21, 120 h, 0.5 μg/ml, 5 days) was 75.8%, the activity at 1 µg/mL (BHK-21 cells [2]; BHK-21, 120 h, 1.0 μg/ml, 5 days) was 78.5% and the activity at 5 µg/mL (BHK-21 cells [2]; BHK-21, 120 h, 5.0 μg/ml, 5 days) was 75.8%. The activity at 25 µg/mL (BHK-21 cells [2]; BHK-21, 120 h, 25.0 μg/ml, 5 days) was 63.5%, the activity at 50 µg/mL (BHK-21 cells [2]; BHK-21, 120 h, 50.0 μg/ml, 5 days) was 51.1% and the “growth of incubated mouse fibroblasts” value (mouse fibroblasts) was “inhibited growth”.

With EGF: epidermal growth factor the “saturation density of the cells” value [3] was “increased the saturation density of the cells”.

For PDGF, the “saturation density of the cells” value ([3]; Eagle's MEM containing 10% calf serum, 37° C.) was “increased the saturation density of the cells”.

In the case of cholera toxin, the “stimulating activity on epidermal cell growth” value (epidermal cell) is given as “marked stimulating activity”.
